# Source: patent publication US20220185793A1, “COMPOUNDS FOR THE TREATMENT OF ONCOVIRUS INDUCED CANCER AND METHODS OF USE THEREOF” (Cellestia Biotech AG, priority 2019, published 2022)
# Legend:
# NOTCH target gene HES1 = NOTCH target gene HES1 downregulation in RPMI 8402 cells; type: cell-based, human; set-up: Percentage inhibition of NOTCH target gene HES1: concentration or dose not given beside the values; conditions: RPMI 8402 cells (NOTCH1 positive, EBV negative)
# Method: (§1) Total RNA was extracted from cells using TRIzol® extraction kit (Invitrogen). Briefly, 1×10^6 cells were washed with ice-cold 1× PBS and lysed in 1 ml of TRIzol® solution for 5 minutes at room temperature to dissociate nucleoprotein complexes. Lysed cells were then treated with 200 μl of chloroform and shaked vigorously for 15-30 seconds and incubated at room temperature for 2-3 minutes. The samples were centrifuged at 14000 rpm using Eppendorf table top centrifuge for 10 minutes at 4° C. Following centrifugation, upper aqueous phase was transferred to new eppendorf tubes. To precipitate total RNA 500 μl of […] was added to the separated aqueous phase and incubated at room temperature for 10 minutes. A RNA pellet was obtained by centrifuging the samples at 4° C. for 10 minutes. RNA pellet obtained was washed with 1 ml ice cold 75% ethanol and spun down at 14000 rpm at 4° C. RNA pellet was dried off of excess of ethanol and resuspended in 40 IA DPEC water.
# (§2) Total RNA extracted from the cell was used to synthesize cDNA by reverse transcription reaction. Reverse transcription was performed according to one of the two following protocols.
# (§3) QRT-PCR was carried out using 7900 HT Fast Real-Time PCR system (Applied Biosystems) or QuantStudio 3 system (ThermoFisher). Briefly, 12.5 ng of template cDNA was used with a primer concentration of 0.5 μM each and lx SYBR Green dye in a final volume of 10 μL in a 96 well or 384 well plate format.
# (§4) To determine the ability of compounds to downregulate EBV driven gene expression, HG-3 cells were treated with selected compounds and percentage inhibition of EBV target genes was determined by quantitative PCR. […] To further determine the anti-oncoviral specificity of compounds, these compounds were tested for their ability to downregulate a NOTCH target gene HES1 in a NOTCH1 positive (EBV negative) human leukemic cell line RPMI8402.
# RUNX3 = experiment: EBV target gene downregulation (qPCR) in HG-3 cells: RUNX3; type: cell-based; conditions: Homo sapiens, mRNA by qPCR, Table 2
# Method: (§5) One million human EBV positive lymphoma cell lines HG3 and LCL070903 (Rosén et al., 2012) were cultured in RPMI1640 media supplemented with 10% FCS. For RNA expression analysis cells were treated with compounds at 10 μM concentration and for proliferation assay cells were treated at a concentration range of 0.01-100 μM. Following treatment cells were harvested and washed with 1× PBS. Total RNA was extracted as described below.
# as §1, §2
# (§6) In first protocol, SuperScript™ RT (Invitrogen) was used for reverse transcription reaction. RNA concentration was measured using NanoDrop®ND-1000 spectrophotometer (Witec AG) and 500 ng of total RNA was mixed with a 10 mM mix of dNTPs and 100 ng of random primers. The reaction mix was incubated at 65° C. for 5 minutes and quickly incubated on ice for 1 minute. Following incubation on ice, 5× first strand buffer and 0.1M DTT were added and mix was incubated for 2 minutes at 25° C. To start the reverse transcription reaction, 200U of SuperScrip™ II RT was added to the reaction mix and incubated at 42° C. for 50 minutes. The reaction was stopped by incubating the reaction mix at 75° C. for 15 minutes.
# (§7) In second protocol, reverse transcription was performed using PrimeScript RT Master Mix (Takara). RNA concentration was measured using NanoDrop®ND-1000 spectrophotometer (Witec AG) and 1 μg of total RNA was mixed with 4 μL 5X PrimeScript RT Master Mix in a total reaction volume of 20 μL. […]
# (§8) To determine the ability of compounds to downregulate EBV driven gene expression, HG-3 cells were treated with selected compounds and percentage inhibition of EBV target genes was determined by quantitative PCR. […]
# [1] = system: EBV positive human lymphoma HG-3 cells; experiment: Alamar blue proliferation assay in HG-3 cells; type: cell-based; conditions: 72 hours; for anti-proliferative effect on HG-3 cells (in words): Alamar blue, FIG. 1 and Table 1; for IC50: Homo sapiens, concentration range 0.01-10 μM, Alamar blue assay, read-out: Anti-proliferative IC50 values
# Method: (§9) One million human EBV positive lymphoma cell lines HG3 and LCL070903 (Rosén et al., 2012) were cultured in RPMI1640 media supplemented with 10% FCS. […] Following treatment cells were harvested and washed with 1× PBS. Total RNA was extracted as described below.
# (§10) Alamarblue® and PrestoBlue proliferation assays were performed to determine the growth kinetics of EBV inhibitor treated cells. Alamar blue® and PrestoBlue consists of a cell permeable substrate resazurin. In metabolically active and proliferating cells, resazurin is converted to resorufin due to an intrinsic reducing power of live cells and produces a red fluorescence. Therefore production of resorufin serves as an indicator of the viability of the cell population.
# (§11) Proliferation assays were performed by seeding 5000 cells/well in a 96 well plate. […] Each concentration was tested in 4 replicates. To determine the growth kinetics, 10 μl of Alamar blue® or PrestoBlue (Invitrogen) was added to each well and incubated for 4 hours. Readout was taken using Tecan F500 (Tecan) multiplate reader or Varioskan LUX (ThermoFisher) multiplate reader.
# In order to determine anti-cancer activity of compounds in oncoviral driven cells, an EBV infected human Chronic Lymphocytic Leukemia cell line HG-3 was used (Rosen et al., 2012). In brief, HG-3 cells were plated in a 96 well plate and treated with an increasing concentration of compounds.
# EBNA2 [2] = experiment: EBV target gene downregulation (qPCR) in HG-3 cells: EBNA2; type: cell-based; conditions: Homo sapiens, mRNA by qPCR
# Method: as §5, §1, §2, §6
# (§12) In second protocol, reverse transcription was performed using PrimeScript RT Master Mix (Takara). RNA concentration was measured using NanoDrop®ND-1000 spectrophotometer (Witec AG) and 1 μg of total RNA was mixed with 4 μL 5X PrimeScript RT Master Mix in a total reaction volume of 20 μL. The reaction mix was incubated at 37° C. for 15 minutes followed by heat inactivation at 85° C. for 5 seconds.
# as §3, §4
# (§13) Upon infection of human cells, EBV is known to induce cancerous transformation of cells via upregulation of host as well as viral genes (e.g LMP1, EBNA2, BATF1, BMI1 and CD21). To determine the ability of compounds to downregulate EBV driven gene expression, HG-3 and LCL070903 cells were treated with selected compounds and percentage inhibition of EBV target genes was determined by quantitative PCR. As shown in Table 5 and Table 6, compounds down regulate EBV target genes such as BMI1 in HG-3 and LCL070903 cells, respectively (FIGS. 3 and 4).
# LMP1 = experiment: EBV target gene downregulation (qPCR) in HG-3 cells: LMP1; type: cell-based; conditions: Homo sapiens, mRNA by qPCR, Table 2
# Method: as §5, §1, §2, §6, §7, §8
# BMI1 (EBV target gene) [3] = experiment: EBV target gene downregulation (qPCR) in HG-3 cells: BMI1; type: cell-based, human; conditions: 48 hours; for potency in downregulating EBV pathway (BMI1) compared with 6-(4-tert-butylphenoxy)pyridin-3-amine (in words): 10 μM, qRT-PCR, FIG. 4; for inhibition at 10 µM: Homo sapiens, mRNA by qPCR, Table 5
# Method: EBV positive human B HG-3 cells were treated with 10 μM of the mentioned compounds for 48 hours. Following treatment, total RNA was extracted and mRNA expression analysed by qRT-PCR.
# as §5, §1, §2, §6, §12, §3, §13
# [4] = system: EBV positive human B HG-3 cells; experiment: PrestoBlue proliferation assay in HG-3 cells; type: cell-based; conditions: 72 hours; for anti-proliferative effect on HG-3 cells (in words): PrestoBlue, FIG. 2 and Table 4; for IC50: Homo sapiens, concentration range 0.03-100 μM, PrestoBlue assay, read-out: Anti-proliferative IC50 values (μM) in HG-3 cells
# Method: as §9, §10, §11
# In brief, HG-3 cells were plated in a 96 well plate and treated with an increasing concentration of compounds.
# EBNA2 [5] = experiment: EBV target gene downregulation (qPCR) in LCL070903 cells: EBNA2; type: cell-based; conditions: Homo sapiens, mRNA by qPCR, Table 6
# Method: as §5, §1, §2, §6, §12, §3, §13
# BMI1 (EBV target gene) [6] = experiment: EBV target gene downregulation (qPCR) in LCL070903 cells: BMI1; type: cell-based, human; conditions: 48 hours; for potency in downregulating EBV pathway (BMI1) compared with 6-(4-tert-butylphenoxy)pyridin-3-amine (in words): 10 μM, qRT-PCR, FIG. 3; for inhibition at 10 µM: Homo sapiens, mRNA by qPCR, Table 6
# Method: EBV positive human B LCL070903 cells were treated with 10 μM of the mentioned compounds for 48 hours. Following treatment, total RNA was extracted and mRNA expression analysed by qRT-PCR.
# as §5, §1, §2, §6, §12, §3, §13
SMILES,Percentage inhibition of NOTCH target gene HES1 (NOTCH target gene HES1) [%],downregulation of NOTCH target gene HES1 (in words) (NOTCH target gene HES1),inhibition at 10 µM (RUNX3) [%],anti-proliferative effect on HG-3 cells (in words) [1],IC50 [1] [µM],inhibition at 10 µM (EBNA2 [2]; Table 2) [%],inhibition at 10 µM (LMP1) [%],potency in downregulating EBV pathway (BMI1) compared with 6-(4-tert-butylphenoxy)pyridin-3-amine (in words) (BMI1 (EBV target gene) [3]),inhibition at 10 µM (BMI1 (EBV target gene) [3]) [%],anti-proliferative effect on HG-3 cells (in words) [4],IC50 [4] [µM],inhibition at 10 µM (EBNA2 [2]; Table 5) [%],inhibition at 10 µM (EBNA2 [5]) [%],potency in downregulating EBV pathway (BMI1) compared with 6-(4-tert-butylphenoxy)pyridin-3-amine (in words) (BMI1 (EBV target gene) [6]),inhibition at 10 µM (BMI1 (EBV target gene) [6]) [%]
"CC(C)(C)c1ccc(Oc2ccc(NCc3cnc(N)nc3)cn2)cc1 [Example 5, 5-(((6-(4-(tert-Butyl)phenoxy)pyridin-3-yl)amino)methyl)pyrimidin-2-amine]",0,do not modulate expression of this gene,57,demonstrate anti-proliferative effect,4.8,46,22,–,–,–,–,–,–,–,–
"Fc1cc(NCc2cccnc2)ccc1Oc1ccc(C2CCCCC2)cc1 [Example 19, 4-(4-Cyclohexylphenoxy)-3-fluoro-N-(pyridin-3-ylmethyl)aniline]",–,–,–,–,–,–,–,enhanced potency,19,demonstrate anti-proliferative effect,3.5,36,19,enhanced potency,56
"CC(C)(C)c1ccc(Oc2ccc(NCc3ccccn3)cn2)cc1 [Example 3, 6-(4-(tert-Butyl)phenoxy)-N-(pyridin-2-ylmethyl)pyridin-3-amine]",0,do not modulate expression of this gene,55,demonstrate anti-proliferative effect,5.4,16,37,–,–,–,–,–,–,–,–
"Cc1ccccc1-c1ccc(Oc2ccc(NCc3cccnc3)cn2)cc1C [Example 29, 6-((2,2′-dimethyl-[1,1′-biphenyl]-4-yl)oxy)-N-(pyridin-3-ylmethyl)pyridin-3-amine]",–,–,–,–,–,–,–,enhanced potency,28,demonstrate anti-proliferative effect,2,6,30,enhanced potency,72
"CC(C)(C)c1ccc(Oc2ccc(NCc3ccncc3)cn2)cc1 [Example 1, 6-(4-(tert-Butyl)phenoxy)-N-(pyridin-4-ylmethyl)pyridin-3-amine]",0,do not modulate expression of this gene,27,demonstrate anti-proliferative effect,4,–,30,–,–,–,–,–,–,–,–
"Cc1nc(Oc2ccc(-c3ccccc3)cc2)ccc1NCc1cccnc1 [Example 23, 6-([1,1′-Biphenyl]-4-yloxy)-2-methyl-N-(pyridin-3-ylmethyl)pyridin-3-amine]",–,–,–,–,–,–,–,enhanced potency,35,demonstrate anti-proliferative effect,1.9,1,1,enhanced potency,39
"CC(C)(C)c1ccc(Oc2ccc(NCc3c[nH]cn3)cn2)cc1 [Example 10, N-((1H-Imidazol-4-yl)methyl)-6-(4-(tert-butyl)phenoxy)pyridin-3-amine]",0,do not modulate expression of this gene,37,demonstrate anti-proliferative effect,6.6,–,15,–,–,–,–,–,–,–,–
"c1ccc(-c2ccc(Oc3ccc(NCc4cccnc4)cn3)cc2)cc1 [Example 20, 6-([1,1r-Biphenyl]-4-yloxy)-N-(pyridin-3-ylmethyl)pyridin-3-amine]",–,–,–,–,–,–,–,–,35,demonstrate anti-proliferative effect,0.3,–,27,enhanced potency,44
